Measurements published in PubChem BioAssay AID652146 (Broad Institute, 2013).

Molecular target: Protein disulfide-isomerase (Homo sapiens) (UniProt P07237)
Assay: inhibition of PDI-mediated insulin reduction – biochemical, turbidity, dry powder samples, set 2, confirmation (AID 652146)
Conditions: plate reader

Chain of Protein disulfide-isomerase (Homo sapiens) (P07237 whole entry, looked up): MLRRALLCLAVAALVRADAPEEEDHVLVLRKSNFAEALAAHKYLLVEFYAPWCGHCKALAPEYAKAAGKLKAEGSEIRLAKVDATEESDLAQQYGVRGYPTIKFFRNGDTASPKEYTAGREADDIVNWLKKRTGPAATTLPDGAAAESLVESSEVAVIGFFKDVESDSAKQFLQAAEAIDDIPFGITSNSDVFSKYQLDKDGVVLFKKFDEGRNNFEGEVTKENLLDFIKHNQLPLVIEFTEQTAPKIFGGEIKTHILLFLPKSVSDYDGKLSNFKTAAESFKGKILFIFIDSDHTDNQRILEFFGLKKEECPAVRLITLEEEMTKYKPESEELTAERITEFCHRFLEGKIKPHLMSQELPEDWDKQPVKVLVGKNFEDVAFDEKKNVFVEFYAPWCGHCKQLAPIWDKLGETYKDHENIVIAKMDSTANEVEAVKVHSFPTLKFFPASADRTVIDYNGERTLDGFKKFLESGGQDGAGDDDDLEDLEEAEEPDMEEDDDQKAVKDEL

AC50: 100 nM
SMILES: CCOC(=O)C1(CCOc2ccccc2)CCN(Cc2ccc(O)c(Cl)c2)CC1
